Measured values published in the CombiSolv-Exp solvation set (Vermeire and Green 2021).

Assay: solvent given as SMILES

CCCCC(CC)CO (configuration not stated)
Details | solvation free energy, 298 K [kcal/mol]
in O | -3.96

CC(=O)C1CC1
Details | solvation free energy, 298 K [kcal/mol]
in O | -4.61

CCCCCCCOC(=O)c1ccccc1C(=O)OCCCCCCC
Details | solvation free energy, 298 K [kcal/mol]
in O | -6.68

O=C(O)CCCC(=O)O
Details | solvation free energy, 298 K [kcal/mol]
in O | -12.7
in O=C1CCCCC1 | -12.1

N
Details | solvation free energy, 298 K [kcal/mol]
in CC(C)=O | -2.02
in CC(C)CO | -2.54
in CC(C)O | -2.37
in CCC(C)=O | -1.94
in CCCCCCC | -1.27
in CCCCO | -2.4
in CCCO | -2.4
in CCO | -2.65
in CN1CCCC1=O | -1.85
in CO | -3.08
in ClC(Cl)Cl | -2.41
in Clc1ccccc1 | -1.36
in O | -4.34

FCC(F)(F)F
Details | solvation free energy, 298 K [kcal/mol]
in CCCCCCCC(=O)OCC(COC(=O)CCCCCCC)OC(=O)CCCCCCC | -1.21
in CCCCCCCCC | -0.76
in CCCCCCCCO | -0.89
in CN1CCCC1=O | -1.96
in CN(C)C=O | -2.21
in O | 0.56

CCS
Details | solvation free energy, 298 K [kcal/mol]
in CC(C)CC(C)(C)C | -3.13
in CO | -3
in O | -1.07
in OCCOCCOCCOCCO | -2.7

O=C(O)c1ccc(O)cc1
Details | solvation free energy, 298 K [kcal/mol]
in C1CCOC1 | -11.4
in C1COCCO1 | -11.2
in CC(=O)N(C)C | -11.8
in CC(C)(C)O | -11.2
in CC(C)=O | -11.5
in CC(C)CO | -11.3
in CC(C)O | -11.5
in CCC(C)O | -11.2
in CCCCCCCCO | -11
in CCCCCCO | -11.2
in CCCCCO | -11.3
in CCCCO | -11.4
in CCCCOC(C)=O | -10.8
in CCCCOCCCC | -10.2
in CCCO | -11.5
in CCO | -11.7
in CCOC(C)=O | -11
in CCOCC | -10.8
in CN(C)C=O | -11.8
in CNC=O | -11.7
in O | -9.25

Oc1ccc(Cl)c(Cl)c1
Details | solvation free energy, 298 K [kcal/mol]
in O | -7.29

Clc1ccc(-c2ccccc2Cl)cc1
Details | solvation free energy, 298 K [kcal/mol]
in CCCCCCCCO | -10
in O | -2.58

OC1CCCCC1
Details | solvation free energy, 298 K [kcal/mol]
in Brc1ccccc1 | -6.47
in C1CCOC1 | -7.24
in CC#N | -6.37
in CC(C)=O | -6.94
in CC(C)CC(C)(C)C | -5.02
in CC(C)O | -7.35
in CCCCCCCCCCCCCCCC | -4.89
in CCCCCCCCCCO | -7.49
in CCCCCCCCO | -7.02
in CCCCOC(C)=O | -7.07
in CO | -7.69
in O | -5.44
in [2H]O[2H] | -5.7

CCCCCCCCCCCCCCCCCC
Details | solvation free energy, 298 K [kcal/mol]
in CC(=O)N(C)C | -12.1
in CCCCCCCCC=CCCCCCCCC(=O)OCC(COC(=O)CCCCCCCC=CCCCCCCCC)OC(=O)CCCCCCCC=CCCCCCCCC | -12.4
in CCCCOC(C)=O | -11.9
in CCO | -10.3
in O | 4.15

CCc1ccc(O)cc1
Details | solvation free energy, 298 K [kcal/mol]
in C=CCCCCCCC=C | -7.11
in CCCCCC | -6.53
in CCCCCCC | -6.47
in CCCCCCCC | -6.44
in Cc1ccc(C)cc1 | -7.85
in Cc1cccc(C)c1 | -7.83
in Cc1ccccc1C | -7.87
in O | -6.14

CCC#N
Details | solvation free energy, 298 K [kcal/mol]
in C=CCCCCCCCCCCCCCC | -2.85
in CC(=O)N(C)C | -4.99
in CC(C)CC(C)(C)C | -2.83
in CCCCCC | -3.04
in CCCCCCC | -2.86
in CCCCCCCC | -2.84
in CCCCCCCCCCCCCCCC | -2.64
in CCCCCCCCO | -3.65
in CCCCO | -4.01
in CCOC(C)=O | -4.68
in CN(C)C=O | -5.01
in CO | -4.92
in ClC(Cl)(Cl)Cl | -3.78
in ClCCCl | -4.98
in Clc1ccccc1 | -4.45
in N#Cc1ccccc1 | -4.82
in O | -3.84
in [2H]O[2H] | -3.79

CCCCCCCCCCCC
Details | solvation free energy, 298 K [kcal/mol]
in CCCCCC | -8.24
in CN(C)C=O | -6.15
in OCCOCCO | -4.02
in OCCOCCOCCO | -4.27
in OCCOCCOCCOCCO | -4.58

O=C(O)c1ccccc1O
Details | solvation free energy, 298 K [kcal/mol]
in C1CCOC1 | -10.8
in C1COCCO1 | -10.3
in CC(C)(C)O | -10.4
in CC(C)=O | -10.5
in CC(C)CCO | -10.1
in CC(C)CO | -10.2
in CC(C)O | -10.4
in CCC(C)=O | -10.4
in CCC(C)O | -10.3
in CCCC(C)O | -10.3
in CCCCCCCCO | -10.2
in CCCCCCO | -10.2
in CCCCCO | -10.2
in CCCCO | -10.3
in CCCCOC(C)=O | -10
in CCCCOCCCC | -9.58
in CCCO | -10.3
in CCO | -10.4
in CCOC(C)=O | -10.1
in CCOCC | -10.2
in CN(C)C=O | -10.9
in CO | -10.5
in COC(C)(C)C | -10.2
in COC(C)=O | -10.2
in Clc1ccccc1 | -8.36
in NC=O | -9.97
in O | -7.35
in O=C1CCCCC1 | -10.4

CC1=CC(=O)CC(C)(C)C1
Details | solvation free energy, 298 K [kcal/mol]
in O | -5.18

CCCCCCOC(C)=O
Details | solvation free energy, 298 K [kcal/mol]
in CCCCCCCCCCCCCCCC | -5.94
in CCCCCCCCO | -6.26
in NC=O | -4.6
in O | -2.29
in [2H]O[2H] | -2.44

CCCC(=O)CC(C)=O
Details | solvation free energy, 298 K [kcal/mol]
in O | -4.39

CC(C)CCCC(C)C1CCC2C3CC=C4CC(O)CCC4(C)C3CCC12C (configuration not stated)
Details | solvation free energy, 298 K [kcal/mol]
in O | -5.93
